Experimental data published in PubChem BioAssay AID1259407 (Chemical Carcinogenesis Research Information System (CCRIS), 2018).
The source made the active and inactive calls. How the calls were made is not given here.

Tested on: CCRIS mutagenicity, Ames/micronucleus/aberration tests
Test: CCRIS mutagenicity studies
Conditions: Test System: AMES SALMONELLA TYPHIMURIUM

Measured: mutagenic call

CCNc1nc(Cl)nc(NC(C)C)n1
inactive: Strain/Indicator: TA97, Metabolic Activation: HAMSTER, LIVER, S-9, AROCLOR 1254 (10%), Method: PREINCUBATION inactive; negative | Strain/Indicator: TA97, Metabolic Activation: HAMSTER, LIVER, S-9, AROCLOR 1254 (30%), Method: PREINCUBATION inactive; negative | Strain/Indicator: TA97, Metabolic Activation: NONE, Method: PREINCUBATION inactive; negative | Strain/Indicator: TA97, Metabolic Activation: NONE, Method: STANDARD PLATE inactive; negative | Strain/Indicator: TA97, Metabolic Activation: RAT, LIVER, S-9, AROCLOR 1254 (10%), Method: PREINCUBATION inactive; negative | Strain/Indicator: TA97, Metabolic Activation: RAT, LIVER, S-9, AROCLOR 1254 (30%), Method: PREINCUBATION inactive; negative | Strain/Indicator: TA97, Metabolic Activation: RAT, LIVER, S-9, AROCLOR 1254, Method: STANDARD PLATE inactive; negative | Strain/Indicator: TA97A, Metabolic Activation: NONE, Method: STANDARD PLATE inactive; negative | Strain/Indicator: TA97A, Metabolic Activation: RAT, LIVER, S-9, AROCLOR 1254, Method: STANDARD PLATE inactive; negative | Strain/Indicator: TA98, Metabolic Activation: HAMSTER, LIVER, S-9, AROCLOR 1254 (10%), Method: PREINCUBATION inactive; negative | Strain/Indicator: TA98, Metabolic Activation: HAMSTER, LIVER, S-9, AROCLOR 1254 (30%), Method: PREINCUBATION inactive; negative | Strain/Indicator: TA98, Metabolic Activation: NONE inactive; negative | Strain/Indicator: TA98, Metabolic Activation: NONE, Method: PREINCUBATION inactive; negative | Strain/Indicator: TA98, Metabolic Activation: PIG, LIVER, S-9, SODIUM PHENOBARBITAL AND BETA-NAPHTHOFLAVONE, Method: STANDARD PLATE inactive; negative | Strain/Indicator: TA98, Metabolic Activation: RAT, LIVER, S-9, AROCLOR 1254 inactive; negative | Strain/Indicator: TA98, Metabolic Activation: RAT, LIVER, S-9, AROCLOR 1254 (10%), Method: PREINCUBATION inactive; negative | Strain/Indicator: TA98, Metabolic Activation: RAT, LIVER, S-9, AROCLOR 1254 (30%), Method: PREINCUBATION inactive; negative | Strain/Indicator: TA98, Metabolic Activation: RAT, LIVER, S-9, AROCLOR 1254, Method: STANDARD PLATE inactive; negative | Strain/Indicator: TA98, Metabolic Activation: S-9, Method: STANDARD PLATE inactive; negative | Strain/Indicator: TA100, Metabolic Activation: HAMSTER, LIVER, S-9, AROCLOR 1254 (10%), Method: PREINCUBATION inactive; negative | Strain/Indicator: TA100, Metabolic Activation: HAMSTER, LIVER, S-9, AROCLOR 1254 (30%), Method: PREINCUBATION inactive; negative | Strain/Indicator: TA100, Metabolic Activation: NONE inactive; negative | Strain/Indicator: TA100, Metabolic Activation: NONE, Method: PREINCUBATION inactive; negative | Strain/Indicator: TA100, Metabolic Activation: PIG, LIVER, S-9, SODIUM PHENOBARBITAL AND BETA-NAPHTHOFLAVONE, Method: STANDARD PLATE inactive; negative | Strain/Indicator: TA100, Metabolic Activation: RAT, LIVER, S-9, AROCLOR 1254 inactive; negative | Strain/Indicator: TA100, Metabolic Activation: RAT, LIVER, S-9, AROCLOR 1254 (10%), Method: PREINCUBATION inactive; negative | Strain/Indicator: TA100, Metabolic Activation: RAT, LIVER, S-9, AROCLOR 1254 (30%), Method: PREINCUBATION inactive; negative | Strain/Indicator: TA100, Metabolic Activation: RAT, LIVER, S-9, AROCLOR 1254, Method: STANDARD PLATE inactive; negative | Strain/Indicator: TA100, Metabolic Activation: S-9, Method: STANDARD PLATE inactive; negative | Strain/Indicator: TA102, Metabolic Activation: NONE inactive; negative | Strain/Indicator: TA102, Metabolic Activation: NONE, Method: STANDARD PLATE inactive; negative | Strain/Indicator: TA102, Metabolic Activation: RAT, LIVER, S-9, AROCLOR 1254 inactive; negative | Strain/Indicator: TA102, Metabolic Activation: RAT, LIVER, S-9, AROCLOR 1254, Method: STANDARD PLATE inactive; negative | Strain/Indicator: TA1535, Metabolic Activation: HAMSTER, LIVER, S-9, AROCLOR 1254 (10%), Method: PREINCUBATION inactive; negative | Strain/Indicator: TA1535, Metabolic Activation: HAMSTER, LIVER, S-9, AROCLOR 1254 (30%), Method: PREINCUBATION inactive; negative | Strain/Indicator: TA1535, Metabolic Activation: NONE inactive; negative | Strain/Indicator: TA1535, Metabolic Activation: NONE, Method: PREINCUBATION inactive; negative | Strain/Indicator: TA1535, Metabolic Activation: NONE, Method: STANDARD PLATE inactive; negative | Strain/Indicator: TA1535, Metabolic Activation: RAT, LIVER, S-9, AROCLOR 1254 inactive; negative | Strain/Indicator: TA1535, Metabolic Activation: RAT, LIVER, S-9, AROCLOR 1254 (10%), Method: PREINCUBATION inactive; negative | Strain/Indicator: TA1535, Metabolic Activation: RAT, LIVER, S-9, AROCLOR 1254 (30%), Method: PREINCUBATION inactive; negative | Strain/Indicator: TA1535, Metabolic Activation: RAT, LIVER, S-9, AROCLOR 1254, Method: STANDARD PLATE inactive; negative | Strain/Indicator: TA1537, Metabolic Activation: HAMSTER, LIVER, S-9, AROCLOR 1254 (10%), Method: PREINCUBATION inactive; negative | Strain/Indicator: TA1537, Metabolic Activation: HAMSTER, LIVER, S-9, AROCLOR 1254 (30%), Method: PREINCUBATION inactive; negative | Strain/Indicator: TA1537, Metabolic Activation: NONE inactive; negative | Strain/Indicator: TA1537, Metabolic Activation: NONE, Method: PREINCUBATION inactive; negative | Strain/Indicator: TA1537, Metabolic Activation: NONE, Method: STANDARD PLATE inactive; negative | Strain/Indicator: TA1537, Metabolic Activation: RAT, LIVER, S-9, AROCLOR 1254 inactive; negative | Strain/Indicator: TA1537, Metabolic Activation: RAT, LIVER, S-9, AROCLOR 1254 (10%), Method: PREINCUBATION inactive; negative | Strain/Indicator: TA1537, Metabolic Activation: RAT, LIVER, S-9, AROCLOR 1254 (30%), Method: PREINCUBATION inactive; negative | Strain/Indicator: TA1537, Metabolic Activation: RAT, LIVER, S-9, AROCLOR 1254, Method: STANDARD PLATE inactive; negative | Strain/Indicator: TA1538, Metabolic Activation: NONE, Method: STANDARD PLATE inactive; negative | Strain/Indicator: TA1538, Metabolic Activation: RAT, LIVER, S-9, AROCLOR 1254, Method: STANDARD PLATE inactive; negative
